Laboratory results: patent US7183383B2, “Uses of collagen IV” (The University of Arkansas for Medical Sciences, priority 2002, dated 2007)

Tests used:
Type in all cases: cell-based, rabbit
[1] = test system: renal proximal tubular cells; assay: Basal oxygen consumption (QO2), a measure of mitochondrial function; details: for repair of basal QO2: day 6 after DCVC injury
Experimental: (§1) Confluent monolayers of renal proximal tubular cells (day 6 after seeding) were exposed to 200 μM S-(1,2-dichlorovinyl)-L-cysteine (dissolved in water) for 1.75 hours followed by toxicant removal and addition of fresh culture media. This method produces approximately 50% cell death and loss 24 hours after the exposure. On days 1, 4, and 6 following S-(1,2-dichlorovinyl)-L-cysteine exposure, the ability of the remaining renal proximal tubular cells to regenerate and repair physiological function was monitored as described below. In some experiments, immediately after S-(1,2-dichlorovinyl)-L-cysteine exposure and after daily media change through day 6 after injury, collagen I (0, 5, 15, or 50 μg/ml), collagen IV (0, 5, 15, or 50 μg/ml), laminin (50 μg/ml), or cellular fibronectin (50 μg/ml) was added to the culture media of uninjured and S-(1,2-dichlorovinyl)-L-cysteine-injured renal proximal tubular cells grown in physiological concentrations of AscP. Exogenous collagens I and IV used in this study were triple helical and contained only α1 and α2 chains in conformations similar to those found in the renal basement membrane (3, 25). Laminin was a mixture of biologically active laminin chains found in most epithelial tissues (8, 50) and cellular fibronectin was composed of functional dimers (51).
On days 1, 4, and 6 after sublethal S-(1,2-dichlorovinyl)L-cysteine injury, renal proximal tubular cells bathed in 37° C. culture medium were gently detached from culture dishes with a rubber policeman and transferred to a 37° C. oxygen consumption (QO2) chamber. Basal renal proximal tubular cells QO2 was measured polarographically using a Clark-type electrode as described previously (36).

[2] = test system: Na^+/K^+-ATPase activity in renal proximal tubular cells; assay: Na^+/K^+-ATPase activity (ouabain-sensitive ATPase)
Experimental: as §1
On days 1 and 6 after sublethal S-(1,2-dichlorovinyl)-L-cysteine injury, total ATPase activity was measured using a modification of a previously described procedure (44). Briefly, renal proximal tubular cells cultured in 48-well cell culture clusters were scraped and incubated in dissociation buffer (5 mM HEPES (pH 7.4), 25 mM imidazole, 1% BSA, 0.065% sodium dodecyl sulfate (SDS)) for 10 min. at room temperature and placed on ice. The dissociated renal proximal tubular cells were then diluted 5-fold with additional dissociation buffer minus SDS. Aliquots of dissociated renal proximal tubular cells were combined with fresh ATPase assay buffer (2.54 mM MgCl2, 100 mM NaCl, 10 mM KCl, 5 mM HEPES, 10 U/ml lactate dehydrogenase, 7 U/ml pyruvate kinase, 2.54 mM Na2ATP, 2.54 mM phospho(enol)pyruvate, and 0.5 mM β-NADH). ATPase activity was measured under linear conditions spectrophotometrically as the oxidation of β-NADH to NAD^+ at 37° C. in the absence or presence of ouabain (0.1 mM) at a wavelength of 340 nm. Na^+/K^+-ATPase activity was calculated as total ATPase activity minus ouabain-insensitive ATPase activity.
Confluent monolayers of renal proximal tubular cells (day 6 after seeding) were exposed to 200 μM S-(1,2-dichlorovinyl)-L-cysteine (dissolved in water) for 1.75 hours followed by toxicant removal and addition of fresh culture media. This method produces approximately 50% cell death and loss 24 hours after the exposure. In some experiments, exogenous collagen IV (50 μg/ml), collagen I (50 μg/ml), or function-stimulating antibodies to collagen-binding integrin subunits α2 or β1 (5 μg/ml) was added daily to the culture media of S-(1,2-dichlorovinyl)-L-cysteine-injured renal proximal tubular cells cultured in the absence of pharmacological concentrations of L-ascorbic acid-2-phosphate. Function-stimulating antibodies to collagen-binding integrin α1 are not commercially available at this time. On days 1 and 6 following S-(1,2-dichlorovinyl)-L-cysteine exposure, active Na^+ transport or Na^+/K^+-ATPase activity, and collagen-binding integrin expression and/or localization in the remaining sublethally injured renal proximal tubular cells was determined as described below.
Total ATPase activity was measured as described above. […]

[3] = test system: collagen-binding integrin subunits α1, α2, and β1; assay: Expression of collagen-binding integrins by flow cytometry; details: for expression of CBI subunits α1, α2, or β1 in sublethally injured RPTC: DCVC-injured RPTC; for expression of CBI subunits α1, α2, or β1 in sublethally injured RPTC / collagen-binding integrin α1, α2, and β1 expression in uninjured RPTC: AscP 500 μM or collagen IV 50 μg/ml
Experimental: CBI expression was measured by flow cytometry of renal proximal tubular cells immunostained with monoclonal antibodies to integrin subunits α1, α2, and β1. Renal proximal tubular cell monolayers were washed 3 times with ice-cold PBS, gently scraped from culture dishes into cell culture media containing 5% BSA (BSA/media), and transferred to microcentrifuge tubes. Renal proximal tubular cells were dissociated by pipeting, incubated on ice with moderate shaking for 20 minutes, centrifuged, and resuspended in 1% BSA/media containing 2 μg/ml of a specific anti-integrin antibody or non-specific IgG on ice with moderate shaking for 1 hour. After 3 washes with 1% BSA/media, renal proximal tubular cells were incubated for 30 minutes in the dark with a goat-anti mouse FITC-conjugated IgG diluted 1:100 in 1% BSA/media, followed by 3 washes with ice-cold PBS. Membrane expression of collagen-binding integrins was determined immediately by flow cytometry using a FACSCalibur four-color cell sorter/analyzer (Beckton Dickinson, San Jose, Calif.) with a blue argon laser for detection of FITC. Specific binding was calculated as total fluorescence minus that in IgG controls.

[4] = test system: collagen-binding integrin subunits α1, α2, and β1; assay: Subcellular localization of CBIs by confocal microscopy; details: for CBIs on the apical membrane of injured RPTC: by day 6 after DCVC; for CBIs on the apical membrane of injured RPTC / basal localization of CBI subunits α1, α2, and β1 in injured RPTC: pharmacological AscP or exogenous collagen IV
Experimental: Collagen-binding integrin localization was determined using confocal microscopy of renal proximal tubular cell monolayers stained with monoclonal antibodies to integrin subunits α1, α2, and β1. Renal proximal tubular cell monolayers were washed 3 times with PBS and fixed with 10% buffered formalin (4% formaldehyde) for 20 minutes at room temperature. After 3 washes with PBS, monolayers were permeabilized in PTB buffer (PBS+0.3% Triton X-100+0.1% BSA) for 10 minutes at room temperature. Monolayers were washed 3 times with 0.1% BSA in PBS and incubated with 8% BSA in PBS for 30 minutes at room temperature. BSA (1%) in PBS containing 5 μg/ml of specific integrin antibodies or non-specific IgG was added to renal proximal tubular cell monolayers and incubated overnight a t 4° C. with moderate shaking. Following 3 washes with PTB buffer, monolayers were incubated for 2 hours in the dark at room temperature with 1% BSA in PBS containing a 1:100 dilution of a FITC-conjugated goat anti-mouse IgG. Monolayers were washed 3 times with PTB, and glass coverslips were applied after the addition of 2–3 drops of mounting media. Confocal microscopy was performed using a Zeiss confocal laser scanning microscope (Model 410, Carl Zeiss, Inc., Thornwood, N.Y.). Basal and apical membrane locations were determined visually in the Z-plane using light field microscopy. Two to three photomicrographs per monolayer at the basal and apical membranes were then scanned with an omnichrome laser filtered at 488 nm to detect FITC.

[5] = one day after DCVC (200 μM), both 50 μM and 500 μM AscP

In the case of `N[C@@H](CSC(Cl)=CCl)C(=O)O` [S-(1,2-dichlorovinyl)-L-cysteine], the “decrease in QO2” value [1, 5] was “approximately 50%”, the “decrease in Na^+/K^+-ATPase activity” value [2, 5] was about 65% and the “expression of CBI subunits α1, α2, and β1 compared to controls” value ([3]; day 1 after DCVC) was “unchanged”. For the same molecule, the “expression of CBI subunits α1 and β1 compared to controls” value ([3]; day 6 after DCVC) was “unchanged”, the “apical membrane distribution of CBI subunits α1, α2, and β1” value ([4]; day 1 after DCVC injury) was “partially redistributed to the apical membrane” and the “CBI α1, α2, and β1 staining at the basal membrane” value ([4]; day 1 following DCVC) was “decreased compared to controls”. For the same molecule, the “apical membrane distribution of CBIs” value ([4]; day 6 after DCVC injury) was “continued to exhibit CBI is distributed to the apical membrane” and the “basal localization of CBI subunits α1, α2, and β1” value ([4]; day 6 after DCVC, absence of pharmacological AscP or collagen IV) was “still decreased compared to sub-confluent controls”.

In the case of “collagen IV: Human placenta collagen IV (Sigma); triple helical, containing only α1 and α2 chains”, the “decrease in basal QO2” value ([1]; day 1 after DCVC injury, in presence of exogenous protein) was “approximately 50%”, the “repair of basal QO2” value ([1]; 50 μg/ml) was “complete repair” and the “repair of basal QO2” value ([1]; 5, 15, 50 μg/ml) was “recovered basal QO2”. For the same molecule, the “basal QO2 in untreated RPTC” value ([1]; uninjured RPTC, days 1 or 6, exogenous protein) was “no effect”, the “Na^+/K^+-ATPase activity in injured RPTC” value ([2]; day 6 after DCVC injury, 50 μg/ml) was “significantly increased” and the “expression of CBI subunits α1, α2, or β1 in sublethally injured RPTC” value [3] was “did not affect”. For the same molecule, the “collagen-binding integrin α1, α2, and β1 expression in uninjured RPTC” value [3] was “did not affect”, the “CBIs on the apical membrane of injured RPTC” value [4] was “complete disappearance” and the “basal localization of CBI subunits α1, α2, and β1 in injured RPTC” value ([4]; day 6 after DCVC) was “return to control levels”.

For `O=C1O[C@H]([C@@H](O)CO)C(O)=C1OP(=O)(O)O` [L-ascorbic acid-2-phosphate, L-Ascorbic acid-2-phosphate], the QO2 ([1]; day 4 after DCVC, 50 μM or 500 μM AscP) was “remained at day 1 levels”, the “QO2 higher than in RPTC grown in 50 μM AscP” value ([1]; day 6 after DCVC, 500 μM AscP) was 49% and the “QO2 relative to controls” value ([1]; day 6 after DCVC, 500 μM AscP) was “equal to that of controls”. The “basal QO2, untreated RPTC, 50 μM vs 500 μM” value ([1]; uninjured RPTC) was “equivalent at all time points”, the “Na^+/K^+-ATPase activity higher than in injured RPTC in physiological AscP” value ([2]; day 6 after DCVC, 500 μM AscP) was “approximately 150%” and the “Na^+/K^+-ATPase activity, untreated RPTC, 50 μM vs 500 μM” value ([2]; uninjured RPTC) was “equivalent at all time points”. The “expression of CBI subunits α1, α2, or β1 in sublethally injured RPTC” value [3] was “did not affect”, the “collagen-binding integrin α1, α2, and β1 expression in uninjured RPTC” value [3] was “did not affect” and the “CBIs on the apical membrane of injured RPTC” value [4] was “complete disappearance”. For the same molecule, the “basal localization of CBI subunits α1, α2, and β1 in injured RPTC” value ([4]; day 6 after DCVC) was “return to control levels”.
